Source: publication PMC7037283, “Introduction of Mercaptoethyl at Sorafenib Pyridine-2-Amide Motif as a Potentially Effective Chain to Further get Sorafenib-PEG-DGL” (Molecules, 2020)

Tests used:
[1] = test system: HUVEC (Human Umbilical Vein Endothelial Cells); assay: MTT anti-proliferative assay, nontumorigenesis cells HUVEC; format: cell-based; conditions: 48 h treatment
Procedure: (§1) The in vitro anti-proliferation of the chemical compounds was measured by the MTT reagent. Briefly, 5 × 10^3 cells in 100 μL of medium per well were plated in 96-well plates. After being incubated for 24 h at 37 °C, the cells were treated with different concentration of tested compound or DMSO (as negative control) for 48 h. Then the medium with compound or DMSO was replaced with 200 μL of fresh medium containing 10% MTT (5 mg/mL in PBS) in each well and incubated at 37 °C for 4 h. Last, the MTT-containing medium was discarded and 150 μL of DMSO per well was added to dissolve the formazan crystals newly formed. Absorbance of each well was determined by a microplate reader (Synergy H4, Bio-Tek) at a 570 nm wavelength. The inhibition rates of proliferation were calculated with the following equation:Inhibition ratio (%) = (ODDMSO−ODcompd)/(ODDMSO−ODblank) × 100(1)
(§2) The concentration of the compounds that inhibited cell growth by 50% (IC50) was calculated using GraphPad Prism, version 6.0.

[2] = test system: A549; assay: MTT anti-proliferative assay, A549; format: cell-based; conditions: Homo sapiens, 48 h treatment
Procedure: as §1, §2

[3] = test system: 293T; assay: MTT anti-proliferative assay, nontumorigenesis cells 293T; format: cell-based; conditions: Homo sapiens, HEK-293T, 48 h treatment
Procedure: as §1, §2

[4] = test system: HepG2; assay: MTT anti-proliferative assay, HepG2; format: cell-based; conditions: Homo sapiens, 48 h treatment
Procedure: as §1, §2

[5] = test system: Hela (human cervical carcinoma); assay: MTT anti-proliferative assay, Hela; format: cell-based; conditions: 48 h treatment
Procedure: as §1, §2

[6] = test system: mouse melanoma cell line B16F10; assay: MTT anti-proliferative assay, B16F10; format: cell-based; conditions: B16-F10, 48 h treatment
Procedure: as §1, §2

[7] = test system: Huh7; assay: MTT anti-proliferative assay, Huh7; format: cell-based; conditions: Homo sapiens, Huh-7, 48 h treatment
Procedure: as §1, §2

[8] = test system: MDA-MB-231 (triple negative breast cancer); assay: MTT anti-proliferative assay, MDA-MB-231; format: cell-based; conditions: Homo sapiens, 48 h treatment
Procedure: as §1, §2

[9] = test system: MCF-7; assay: MTT anti-proliferative assay, MCF-7; format: cell-based; conditions: Homo sapiens, MCF7, 48 h treatment
Procedure: as §1, §2

Row | IC50 [2] | IC50 [4] | IC50 [5] | IC50 [6] | melting point | IC50 [7] | IC50 [8] | IC50 [9] | Compound | IC50 [1] | IC50 [3]
1 | 287 µM | 70.7 µM | > 500 µM | > 500 µM | 193 to 195 °C | 319 µM | > 500 µM | 471 µM | O=C(Nc1ccc(Oc2ccnc(C(=O)NCCO)c2)cc1)Nc1ccc(Cl)c(C(F)(F)F)c1 [Compound 10a, N-(2-hydroxyethyl)-4-(4-(3-(4-chloro-3-(trifluoromethyl)phenyl)ureido)phenoxy)picolinamide] | 583 µM | 643 µM
2 | 447 µM | 282 µM | 63.7 µM | > 500 µM |  | 58.8 µM | 295 µM | 159 µM | O=C(Nc1ccc(Oc2ccnc(C(=O)NCCS)c2)cc1)Nc1ccc(Cl)c(C(F)(F)F)c1 [Compound 10b, N-(2-mercaptoethyl)-4-(4-(3-(4-chloro-3-(trifluoromethyl)phenyl)ureido)phenoxy) picolinamide] | 197 µM | 135 µM
3 | > 500 µM | 90.1 µM | 233 µM | 449 µM | 103 to 105 °C | 88.4 µM | 330 µM | 268 µM | O=C(Nc1ccc(Oc2ccnc(C(=O)NCCCO)c2)cc1)Nc1ccc(Cl)c(C(F)(F)F)c1 [Compound 10c, N-(3-hydroxypropyl)-4-(4-(3-(4-chloro-3-(trifluoromethyl)phenyl)ureido)phenoxy)picolinamide] | 329 µM | 454 µM
4 | 46.2 µM | 80.1 µM | > 500 µM | > 500 µM | 139 to 141 °C | > 500 µM | > 500 µM | > 500 µM | CC(CO)NNC(=O)c1cc(Oc2ccc(NC(=O)Nc3ccc(Cl)c(C(F)(F)F)c3)cc2)ccn1 (stereo not shown) [Compound 15a, 1-(4-Chloro-3-(trifluoromethyl)phenyl)-3-(4-((2-(2-(1-hydroxypropan-2-yl)hydrazine-1-carbonyl)pyridin-4-yl)oxy)phenyl)urea] | 320 µM | 1580 µM
5 | > 500 µM | > 500 µM | > 500 µM | > 500 µM | 89 to 92 °C | > 500 µM | > 500 µM | > 500 µM | CC(CCO)NNC(=O)c1cc(Oc2ccc(NC(=O)Nc3ccc(Cl)c(C(F)(F)F)c3)cc2)ccn1 (stereo not shown) [Compound 15b, 1-(4-Chloro-3-(trifluoromethyl)phenyl)-3-(4-((2-(2-(4-hydroxybutan-2-yl)hydrazine-1-carbonyl)pyridin-4-yl)oxy)phenyl)urea] | 1250 µM | 559 µM
6 | 17.4 µM | 24.1 µM | 49.5 µM | 17.3 µM |  | 19.5 µM | 12.3 µM | 37.2 µM | CNC(=O)c1cc(Oc2ccc(NC(=O)Nc3ccc(Cl)c(C(F)(F)F)c3)cc2)ccn1 [Sorafenib] | 35.5 µM | 16.1 µM
